What was measured:
[1] = Experiment 1: serum radioactivity after one administration of radiolabelled vitamin D3 (intracardiac, gastric, dermal); type: in vivo, Wistar rats
Excerpt: Each point is the mean of 3-6 rats;
A comparison of serum radioactivity after one administration of radiolabelled vitamin D3 via the skin or gut, compared to intravascular injection.
The protocols and procedures used in this work were approved beforehand by an animal-care committee at the University of Toronto. Wistar rats, 250-g weight and fed normal diet, were divided into three groups of six, and each rat was given 400,000 cpm of […] (57 mCi/mmol, Amersham, UK). One group was given the [^14 C]-vitamin D3 by intracardiac injection; one group was given the tracer through an infant-feeding tube, directly into the stomach; and one group received the dose by application in 50 μL ethanol to a 2×2 cm patch of shaved skin on the lower back. Blood was taken by bleeding 0.25 mL from the tail, from three rats at a time, for each time indicated in the graph, except for the final sample at 3 wk, which is from all rats at the time of killing with an anesthetic overdose. The serum was counted in a Beckman LS6800 beta-counter and results are corrected for background, sample volume, and rat weight.

24-hydroxylase = experiment: Experiment 3: 24-hydroxylase in renal mitochondria; type: in vivo, rat; conditions: for Renal mitochondria 24-hydroxylase: 6 weeks
Description: Male, Wistar rats were obtained at 120-130 g, and placed on a 0.01% calcium, 0.7% phosphate diet that was vitamin D deficient (Teklad Test Diets, Madison, WI) this was for one week to help deplete vitamin D stores. For the next three weeks the rats were fed the vitamin D-deficient diet, but with normal, 0.5%, calcium. Starting with these 3 weeks, the rats were divided into four vitamin D3 -treatment groups, initially, nine rats per group: group a) supplemented once weekly with 0.6 μg vitamin D3 (average dose, 0.08 μg/day); group b) supplemented once every second day with vitamin D3 to provide 2 nmol/day, i.e., each dose was 4 nmol of vitamin D3; group c) supplemented once every second day with vitamin D3 to provide 8 μg/day. The preceding groups all received the vitamin D3 through an infant-feeding tube inserted through the mouth into the stomach. One group, d), received its vitamin D3 in the ethanol applied onto a shaved 2 cm×2 cm patch of skin on the back, this was done every second day to provide vitamin D3 at 8 μg/day. The volume of each dose of vitamin D3 given was adjusted so that the stated doses are per 250 g body weight. Over a second 3-week period while maintaining the described vitamin D3 dosing regimens, diet calcium content was changed weekly and blood sampling was started (that is, changes in calcium and sampling was from weeks 4 to 6, inclusive, of receiving the appropriate vitamin D3 supplement). Diet calcium was first dropped to 0.01% then raised to 1.5% and finally dropped again to 0.01%. For each week of dietary calcium manipulation, blood was obtained at day zero (the day of but just prior to the change in calcium), and days 1, 3, and 7 after the change. During the first week, 0.5 mL of blood was taken on the first two of these days and anticoagulated with heparin, the cells were isolated and resuspended in normal rat plasma and reinjected into the femoral vein. […] For the subsequent samplings, only 0.2-0.3 mL of blood was taken by bleeding from the tail into precalibrated microcentrifuge tubes. In this way, the bleeds prior to sacrifice removed a net total of less than 2 mL of blood, that is, less than or equal to 10% of the blood volume. Samples of daytime urine was collected into microfuge tubes that were fastened to the cones of metabolic collection funnels designed to hang under the wire cages. The cages and cones were rinsed with 0.1 mol/L hydrochloric acid prior to each collection. To eliminate contamination of the urine with diet, stool or water, the rats were placed into these separate cages only during the urine-collection period, until about 1 mL urine was present in the microfuge tube, this was typically within 5 min to one hour.
Biochemical measurements. 1,25(OH)2 D3 in serum was measured by calf-thymus receptor-binding assay after initial purification of 1,25(OH)2 D3 with C18-OH cartridges (5). For the serum volumes that were minimal, serum was measured out in 50 μL increments, and the final result was adjusted for the volume of sample analyzed. To measure 1α-hydroxylase in renal mitochondria, the incubation was as described previously, except the substrate was 20 μmol/L nonradioactive 25(OH)D3. The assay was stopped by addition of 2.5 mL methanol. To monitor recovery of 1,25 (OH)2 D3, 2000 cpm of [^3 H]--1,25(OH)2 D3 were added in 50 μL ethanol prior to further extraction with two additions of 1.25 mL methylene chloride. The methylene chloride layer was taken and evaporated to dryness, redissolved in hexane, isopropanol, methanol (90:9: 1) for purification by HPLC, Zorbax-Sil column. The material eluting as 1,25(OH)2 D3 was evaporated and redissolved in acetonitrile: water for further purification with C18-OH cartridges and quantitation by thymus receptor assay, as described for serum. Renal 24-hydroxylase was measured by incubating mitochondria with [^3 H]-25(OH)D3 as substrate (Vieth and Fraser, J Biol Chem. 254:12455-12460;1979). […]

[2] = Experiment 5: toxic effects after 2 weeks of high doses of dermal or oral vitamin D3; type: in vivo, Male Wistar rats
Description: Toxicity: Long-term effects of increasing doses of vitamin D3 given dermally or by gastric tube.
This experiment was to compare potential toxic effects of vitamin D3 given for a 2 wk period, at the near-fatal dose of 800 μg per day by gastric tube, or by dermal administration at 800 μg/day or 2600 μg/day. Another goal was find evidence of saturable dermal uptake by including [^14 C]-vitamin D3 to monitor its removal from the skin at the high doses of vitamin D3.
Male Wistar rats, 190±10 g were obtained and divided into three groups of 7. They were treated for 2 weeks with one the following: 2000 nmol/day of vitamin D3 by gastric tube; 800 μg/day applied to a 2×2 cm patch of skin on the back; 2600 μg/day skin. The day before killing, 66,000 counts per minute of [^14 C]-vitamin D3 was applied along with the dermal dose to permit a determination of uptake from the skin. The rats were killed after two weeks for analysis of serum, urine, kidney, and aorta. The calcium in urine and acid-treated homogenate of kidney was measured by chemical colorimetry; aorta calcium was measured by treating with nitric acid measuring calcium by atomic absorption.

C=C1CC[C@H](O)C/C1=C/C=C1\CCC[C@]2(C)[C@@H]([C@H](C)CCCC(C)C)CC[C@@H]12 [vitamin D3]
difference in serum radioactivity between dermal and oral groups ([1]; 3 wk): not statistically significant | vitamin D3 delivered into the blood compared to direct injection ([1]; dermal and gastric): less than half | rate of uptake into the circulation from the skin vs gut ([1]; one tracer dose, rats): more slowly than from the gut | radioactivity in kidney, liver, and adipose tissues ([1]; radioactive vitamin D3): paralleled to the serum levels | difference between the two routes in activities of renal enzymes (24-hydroxylase) (24-hydroxylase; 20 nmol/250 g/day): no significant difference between the two routes | Renal mitochondria 24-hydroxylase (24-hydroxylase; 0.08 μg/day diet): 1.34 pmol/mg/mi | Renal mitochondria 24-hydroxylase (24-hydroxylase; 0.8 μg/day G1 (gastric)): 3.67 pmol/mg/mi | Renal mitochondria 24-hydroxylase (24-hydroxylase; 8 μg/day G1 (gastric)): 8.88 pmol/mg/mi | Renal mitochondria 24-hydroxylase (24-hydroxylase; 8 μg/day dermal): 6.26 pmol/mg/mi | 24-hydroxylase in kidney (24-hydroxylase; 8 μg/day, gastric and dermal, vs groups with less vitamin D3): increased 24-hydroxylase in kidney | urinary calcium (above the usual rat normal) ([2]; all treatments): > 1 μmol/mmol creatinine | serum calcium (above the normal rat value) ([2]; all treatments, 2 weeks): > 2.4 mmol/L | calcium accumulation in kidney and aorta ([2]; by gastric tube, 2 weeks): substantial in both the kidney and the aorta | Urine Ca/create Day 4 ([2]; dermal 800 μg/day): 7.9 | Urine Ca/create Day 13 ([2]; dermal 800 μg/day): 10.0 | Weight gain ([2]; dermal 800 μg/day): 91 g/2 wk | Total Aorta Calcium ([2]; dermal 800 μg/day, 2 weeks): < 10 nmol | Total Renal Calcium ([2]; dermal 800 μg/day, 2 weeks): 13.3 µmol/L | Urine Ca/create Day 4 ([2]; dermal 2600 μg/day): 10.3 | Urine Ca/create Day 13 ([2]; dermal 2600 μg/day): 10.8 | Weight gain ([2]; dermal 2600 μg/day): 76 g/2 wk | Total Aorta Calcium ([2]; dermal 2600 μg/day, 2 weeks): < 10 nmol | Total Renal Calcium ([2]; dermal 2600 μg/day, 2 weeks): 13.3 µmol/L | difference in serum 25(OH)D3 between the two dermal groups ([2]; dermal 800 vs 2600 μg/day): no statistical difference | Weight gain ([2]; dermal, same or higher doses, 2 wk): normal weight gain | calcium accumulation in kidney and aorta ([2]; dermally treated, 2 weeks): no evidence of either effect | Urine Ca/create Day 4 ([2]; gastric 800 μg/day): 12.0 | Urine Ca/create Day 13 ([2]; gastric 800 μg/day): 9.9 | Weight gain ([2]; gastric 800 μg/day): 7 g/2 wk | Total Aorta Calcium ([2]; gastric 800 μg/day, 2 weeks): 361 nmol | Total Renal Calcium ([2]; gastric 800 μg/day, 2 weeks): 77 µmol/L | serum 1,25(OH)2 D3, gastric vs skin groups ([2]; gastric, 2 weeks): lower serum 1,25(OH)2 D3 concentrations than with either skin group | Weight gain ([2]; near-toxic gastric dose, 2 wk): prevented the rats from gaining weight
